Measured values from US5432192A, “Tricyclic compounds and method for treating allergic diseases” (Hokuriku Seiyaku Co., Ltd., priority 1991, dated 1995).
One block for each molecule: values may come before it.

Assays:
[1] = target: T1, Acetylcholine dose-response in isolated ileum from male Hartley guinea-pigs (Cavia porcellus, UniProt H0W1Z3); assay: Anti-acetylcholinergic effect, isolated guinea-pig ileum (KB by Furchgott method); set-up: species or system guinea-pig (male Hartley); conditions: dissociation constant KB (M) of antagonist vs acetylcholine; test drug applied 30 minutes before; 28° C.; read-out: -Log KB (anti-acetylcholinergic effect) (converted)
T1 construct: The ileum was isolated from male Hartley guinea-pigs; from tissue; host or cells: isolated ileum of male Hartley guinea-pigs
Procedure: (§1) The ileum was isolated from male Hartley guinea-pigs (5 to 8 weeks of age). The preparation was suspended in a bath containing Locke-Ringer nutritional solution (NaCl: 154 mM, KCl: 5.6 mM, CaCl2.H2 O: 2.2 mM, MgCl2. 6H2 O: 2.1 mM, NaHCO3 : 5.9 mM, glucose: 2.8 mM) bubbled with 95% O2 +5% CO2 mixed gas at 28° C., and then 0.5 g weight was loaded and tention through isotonic transducer was recorded using a recorder. Acetylcholine was cumulatively applied 3 times at intervals of 40 minutes, and the dose-response curve of the third experiment, for which a test drug was applied 30 minutes before the experiment, was compared with the result of the second experiment as a reference. Dissociation constants KB (M) of antagonists were calculated according to the method of Furchgott. From the results shown in Table 3, it is apparent that the compounds of the present invention have almost no anti-acetylcholinergic activities.

[2] = target: T2, Histamine dose-response in isolated ileum from male Hartley guinea-pigs (Cavia porcellus, UniProt P31389); assay: Anti-histaminic effect, isolated guinea-pig ileum (KB by Furchgott method); set-up: species or system guinea-pig (male Hartley); conditions: dissociation constant KB (M) of antagonist vs histamine; test drug applied 30 minutes before; 28° C.; read-out: -Log KB (anti-histaminic effect) (converted)
T2 construct: The ileum was isolated from male Hartley guinea-pigs; from tissue; host or cells: isolated ileum of male Hartley guinea-pigs
Procedure: as §1, with “CaCl2 .2H2” for “CaCl2.H2”, “MgCl2.6H2” for “MgCl2. 6H2”, “Histamine” for “Acetylcholine”, “1,” for “3,”, “excellent anti-histaminic” for “almost no anti-acetylcholinergic”

[3] = system: PCA reaction in passively sensitized male Wistar rats; assay: Anti-allergic effect (Inhibitory effect on PCA reaction); assay type: in vivo, rat (male Wistar); conditions: Rattus norvegicus, po, 1 h, 1 mg/kg orally, antigen challenge after one hour, read-out: Inhibition rate (%) of PCA reaction
Procedure: 0.1 ml of anti-dinitrophenylated ascaris extract (DNP-As) rat IgE serum was injected intracutaneously to the back of male Wistar rats (6 weeks of age). After 48 hours, a solution of 1% Evans blue in physiological saline containing 1 mg of an antigen (DNP-As) was administered from caudal vein. After 30 minutes, the animals were exsanguinated and dyes in blue spots were extracted with 1N KOH, and then the amounts of the dyes were measured by absorbance at 620 nm. After the passively sensitized rats described above were fasted for 16 to 18 hours, 1 mg/kg of each test compound was administered orally to the rats, and then the rats were challenged with antigen after one hour. The amounts of dyes in the test animals were compared with those of the control to obtain the inhibition rate (%) of PCA reaction.

[4] = known adverse reactions, background art; cited from earlier work

T2 sequence (P31389 whole entry): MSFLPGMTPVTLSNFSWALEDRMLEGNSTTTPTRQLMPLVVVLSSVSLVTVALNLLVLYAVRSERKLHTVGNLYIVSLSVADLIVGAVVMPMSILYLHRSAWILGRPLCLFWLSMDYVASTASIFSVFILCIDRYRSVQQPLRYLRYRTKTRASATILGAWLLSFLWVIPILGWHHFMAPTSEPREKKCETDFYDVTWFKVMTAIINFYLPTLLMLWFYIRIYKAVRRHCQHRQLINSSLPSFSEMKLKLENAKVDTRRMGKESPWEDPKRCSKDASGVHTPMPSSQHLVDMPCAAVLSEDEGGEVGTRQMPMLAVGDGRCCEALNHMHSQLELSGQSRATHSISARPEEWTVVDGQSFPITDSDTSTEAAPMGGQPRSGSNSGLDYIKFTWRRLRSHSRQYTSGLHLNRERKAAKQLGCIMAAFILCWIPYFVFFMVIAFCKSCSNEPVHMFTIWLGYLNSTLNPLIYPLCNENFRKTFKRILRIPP
T1 sequence (H0W1Z3 1-590): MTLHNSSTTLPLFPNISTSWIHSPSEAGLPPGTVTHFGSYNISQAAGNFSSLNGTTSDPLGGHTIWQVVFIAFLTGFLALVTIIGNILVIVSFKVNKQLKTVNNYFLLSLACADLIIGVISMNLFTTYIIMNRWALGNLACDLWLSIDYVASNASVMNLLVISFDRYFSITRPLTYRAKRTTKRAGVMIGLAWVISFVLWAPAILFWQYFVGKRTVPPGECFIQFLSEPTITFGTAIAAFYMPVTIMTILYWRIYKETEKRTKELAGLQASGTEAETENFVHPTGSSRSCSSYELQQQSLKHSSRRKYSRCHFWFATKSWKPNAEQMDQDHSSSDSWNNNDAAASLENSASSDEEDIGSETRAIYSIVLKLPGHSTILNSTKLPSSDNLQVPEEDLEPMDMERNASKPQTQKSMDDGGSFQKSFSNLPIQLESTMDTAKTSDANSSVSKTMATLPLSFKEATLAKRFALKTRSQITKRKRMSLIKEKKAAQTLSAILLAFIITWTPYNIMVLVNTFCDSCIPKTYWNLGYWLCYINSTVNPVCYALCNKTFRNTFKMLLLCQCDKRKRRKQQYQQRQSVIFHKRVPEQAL

SMILES: CN(CCC=C1c2ccccc2C=Cc2ccccc21)CCCCC(=O)O [Example 17, 5-[N-[3-(5H-Dibenzo[a,d]cyclohepten-5-ylidene)propyl]-N-methylamino]valericAcid]
Kb [1]: 9.12e-07 M
Kb [2]: 6.17e-09 M
inhibition at 1 mg/kg [3]: 72%

SMILES: CN(CCC=C1c2ccccc2C=Cc2ccccc21)CC(=O)O [Example 16, [N-[3-(5H-Dibenzo[a,d]cyclohepten-5-ylidene)propyl]-N-methylamino]acetic Acid]
Kb [1]: 1.26e-05 M
Kb [2]: 3.16e-08 M

SMILES: CN(C)CCC=C1c2ccccc2COc2ccccc21 [doxepin, Doxepin, reference compound]
adverse reactions [4]: sleepiness, thirst, and constipations
Kb [1]: 5.89e-08 M
inhibition at 1 mg/kg [3]: 21%

SMILES: CN(CCC=C1c2ccccc2C=Cc2ccccc21)CCC(=O)O [Example 14, 3-[N-[3-(5H-Dibenzo[a,d]cyclohepten-5-ylidene)propyl]-N-methylamino]propionic Acid]
Kb [1]: 1.51e-05 M
Kb [2]: 6.92e-09 M
inhibition at 1 mg/kg [3]: 72%

SMILES: CN(CCC=C1c2ccccc2COc2ccccc21)CC(=O)O [Example 19, [N-[3-(Dibenz[b,e]oxepin-11(6H)-ylidene)propyl]-N-methylamino]acetic Acid]
Kb [1]: 4.9e-05 M
Kb [2]: 1.55e-08 M

SMILES: CN(CCC=C1c2ccccc2C=Cc2ccccc21)CCCCCC(=O)O [Example 18, 6-[N-[3-(5H-Dibenzo[a,d]cyclohepten-5-ylidene)propyl]-N-methylamino]hexanoic Acid]
Kb [1]: 5.5e-07 M
Kb [2]: 1.2e-08 M
inhibition at 1 mg/kg [3]: 50%

SMILES: CN(C)CCC=C1c2ccccc2C=Cc2ccccc21 [cyclobenzaprine, Cyclobenzaprine, reference compound]
adverse reactions [4]: sleepiness, dizziness, fatigue, thirst, nausea, constipation, and dyspepsia
Kb [1]: 7.59e-09 M
inhibition at 1 mg/kg [3]: 14%

SMILES: CN(CCC=C1c2ccccc2C=Cc2ccccc21)CCCC(=O)O [Example 15, 4-[N-[3-(5H-Dibenzo[a,d]cyclohepten-5-ylidene)propyl]-N-methylamino]butyricAcid]
Kb [1]: 2.57e-06 M
Kb [2]: 4.27e-09 M

Now from value to molecule, other results behind:

Kb [1]: 7.08e-06 M
Kb [2]: 3.09e-09 M
SMILES: CN(CCC=C1c2ccccc2COc2ccccc21)CCC(=O)O [Example 20, 3-[N-[3-(Dibenz[b,e]oxepin-11(6H)-ylidene)propyl]-N-methylamino]propionic Acid]
inhibition at 1 mg/kg [3]: 69%

Kb [1]: 3.16e-06 M
Kb [2]: 7.76e-09 M
SMILES: CN(CCC=C1c2ccccc2COc2ccccc21)CCCCCC(=O)O [Example 23, 6-[N-[3-(Dibenz[b,e]oxepin-11(6H)-ylidene)propyl]-N-methylamino]hexanoic Acid]

Kb [1]: 7.24e-06 M
Kb [2]: 3.47e-09 M
SMILES: CN(CCC=C1c2ccccc2COc2ccccc21)CCCC(=O)O [Example 21, 4-[N-[3-(Dibenz[b,e]oxepin-11(6H)-ylidene)propyl]-N-methylamino]butyric Acid]

Kb [1]: 1e-05 M
Kb [2]: 4.37e-09 M
SMILES: CN(CCC=C1c2ccccc2COc2ccccc21)CCCCC(=O)O [Example 22, 5-[N-[3-(Dibenz[b,e]oxepin-11(6H)-ylidene)propyl]-N-methylamino]valeric Acid]
inhibition at 1 mg/kg [3]: 62%
